The structures appear in SMILES notation. Where two headings read alike, the source gives them in different places.

In the assay the target is T1, Human FXR full length (Homo sapiens, UniProt Q96RI1).
T1 construct: Human FXR full length and RXR full length was obtained from Ronald Evans' laboratory; expressed in transfected cells; host or cells: CV-1 cells
T1 sequence (Q96RI1 1-476 isoform Q96RI1-1): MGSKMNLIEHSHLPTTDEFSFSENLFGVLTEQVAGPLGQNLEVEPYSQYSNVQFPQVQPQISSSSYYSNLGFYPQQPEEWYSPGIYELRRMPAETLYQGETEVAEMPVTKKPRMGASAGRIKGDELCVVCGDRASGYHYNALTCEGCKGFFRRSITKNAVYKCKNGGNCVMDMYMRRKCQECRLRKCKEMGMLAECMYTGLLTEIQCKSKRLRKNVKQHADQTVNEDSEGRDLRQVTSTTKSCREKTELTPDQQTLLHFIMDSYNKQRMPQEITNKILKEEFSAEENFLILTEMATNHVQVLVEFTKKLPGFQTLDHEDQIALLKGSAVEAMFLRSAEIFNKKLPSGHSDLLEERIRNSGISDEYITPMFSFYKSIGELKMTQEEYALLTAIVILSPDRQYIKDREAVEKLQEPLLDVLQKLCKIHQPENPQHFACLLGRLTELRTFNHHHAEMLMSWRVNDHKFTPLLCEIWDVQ
T1 sequence (P19793 1-462 partner): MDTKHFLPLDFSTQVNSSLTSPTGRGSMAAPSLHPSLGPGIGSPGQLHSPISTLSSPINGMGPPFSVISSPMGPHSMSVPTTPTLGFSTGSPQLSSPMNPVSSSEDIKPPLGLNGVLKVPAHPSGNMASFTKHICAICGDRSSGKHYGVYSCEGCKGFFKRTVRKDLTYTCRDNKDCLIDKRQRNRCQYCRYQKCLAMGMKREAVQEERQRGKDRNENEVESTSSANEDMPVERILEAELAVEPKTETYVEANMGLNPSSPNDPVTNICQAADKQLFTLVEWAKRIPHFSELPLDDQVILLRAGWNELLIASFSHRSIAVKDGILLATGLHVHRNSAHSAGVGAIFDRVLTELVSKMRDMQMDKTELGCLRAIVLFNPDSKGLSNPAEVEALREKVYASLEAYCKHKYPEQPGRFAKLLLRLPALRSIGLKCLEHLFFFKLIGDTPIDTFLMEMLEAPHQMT
Briefly: FXR activity screen, luciferase reporter in transfected CV-1 cells. It is filed as cell-based. The protocol:
CV-1 cells were grown in DMEM+10% charcoal stripped FCS. Cells were seeded into 384-well plates the day before transfection to give a confluency of 50-80% at transfection. A total of […] DNA containing 0.32 micrograms pCMX-hFXRfl, 0.32 micrograms pCMX-hRXRfl, 0.1 micrograms pCMXβGal, 0.08 micrograms pGLFXRE reporter and 0.02 micrograms pCMX empty vector was transfected per well using FuGene transfection reagent according to the manufacturer's instructions (Roche). Cells were allowed to express protein for 48 hours followed by addition of compound.
Human FXR full length and RXR full length was obtained from Ronald Evans' laboratory and PCR amplification of the hFXR cDNA and the hRXR cDNA was performed. The amplified cDNAs was cloned into the vector pCMX generating the plasmids pCMX-hFXRfl and pCMX-hRXRfl. Ensuing fusions were verified by sequencing. The pCMXMH2004 luciferase reporter contains multiple copies of the GAL4 DNA response element under a minimal eukaryotic promoter (Hollenberg and Evans, 1988). pCMXβGal was generated in the Evans laboratory, Salk Institute.
All compounds were dissolved in DMSO and diluted 1:1000 upon addition to the cells. Compounds were tested in quadruple in concentrations ranging from 0.001 to 100 μM. Cells were treated with compound for 24 hours followed by luciferase assay. Each compound was tested in at least two separate experiments.
Medium including test compound was aspirated and washed with PBS. 50 μL PBS including 1 mM Mg^2+ and Ca^2+ were then added to each well. The luciferase assay was performed using the LucLite kit according to the manufacturer's instructions (Packard Instruments). Light emission was quantified by counting on a Perkin Elmer Envision reader. To measure […] activity 25 μL supernatant from each transfection lysate was transferred to a new 384 microplate. Beta-galactosidase assays were performed in the microwell plates using a kit from Promega and read in a Perkin Elmer Envision reader. The beta-galactosidase data were used to normalize (transfection efficiency, cell growth etc.) the luciferase data.
The activity of a compound is calculated as fold induction compared to an untreated sample. For each compound the efficacy (maximal activity) is given as a relative activity compared to Fexaramine, a FXR agonist. The EC50 is the concentration giving 50% of maximal observed activity. EC50 values were calculated via non-linear regression using GraphPad PRISM (GraphPad Software, San Diego, Calif.).
For orientation: In a reporter assay the amount or activity of a reporter protein is the signal.

The mark [1] stands for this setting: first round, CV-1 cells, 24 hours, read-out: 1st RND EC50.
[2] abbreviates: second round, CV-1 cells, 24 hours, read-out: 2nd RND EC50.
The mark [3] stands for this setting: retest, read-out: EC50 (retested).

Consider `[2H]C(c1ccc(-c2ccc3c(cnn3C)c2)cc1)N(C(=O)C1CCCCC1)c1cccc(/C=C/C(=O)OC)c1` (stereo not shown) [NSSK00033], for which the EC50 is, setting by setting: under setting [1], 169 nM; under setting [2], 254 nM.
Regarding `[2H]C(c1ccc(-c2ccc3c(cnn3C)c2)cc1F)N(C(=O)c1ccccc1)c1cccc(/C=C/C(=O)OC)c1` (stereo not shown) [NSSK00038], the EC50 was 1370 nM under setting [1] and 1900 nM under setting [2].
`[2H]C(c1ccc(-c2ccc3c(cnn3C)c2)cc1)N(C(=O)C1CCCCC1)c1cc(F)cc(/C=C/C(=O)OC)c1` (stereo not shown) [NSSK00096, methyl (E)-3-(3-fluoro-5-(N-((4-(1-methyl-1H-indazol-5-yl)phenyl)methyl-d)cyclohexanecarboxamido)phenyl)acrylate]: the EC50 amounted to 340 nM under setting [1], 220 nM under setting [3] and 375 nM under setting [2].
Consider `COC(=O)/C=C/c1cccc(N(Cc2ccc(-c3ccc4c(cnn4C)c3)cc2Cl)C(=O)[C@@H]2C[C@@H]3CC[C@H]2C3)c1` [NSSK00046], for which the 50% effective concentration (EC50) was found to be 639 nM under setting [1] and 519 nM under setting [2].
For `[2H]C(c1ccc(-c2ccc(N(C)C)cc2)cc1Cl)N(C(=O)c1ccccc1)c1cncc(/C=C/C(=O)OC)c1` (stereo not shown) [NSSK00065], the EC50 by setting is: under setting [1], 3300 nM; under setting [2], 6000 nM.
On to `[2H]C(c1ccc(-c2ccc3c(cnn3C)c2)cc1Cl)N(C(=O)c1ccccc1)c1cncc(/C=C/C(=O)OC)c1` (stereo not shown) [NSSK00101], for which the EC50 worked out at 5900 nM under setting [1] and 15100 nM under setting [2].
For `COC(=O)/C=C/c1cncc(N(Cc2ccc(-c3ccc(N(C)C)cc3)cc2Cl)C(=O)[C@@H]2C[C@@H]3CC[C@H]2C3)c1` [NSSK00082] the same measures were 5100 nM and 6100 nM.
As to `COC(=O)/C=C/c1cc(F)cc(N(Cc2ccc(-c3ccc(N(C)C)cc3)cc2Cl)C(=O)c2ccccc2)c1` [NSSK00103], the concentration for a half-maximal effect (EC50) reads like this: under setting [1], 308 nM; under setting [2], 1000 nM.
Consider `[2H]C(c1ccc(-c2ccc(N(C)C)cc2)cc1F)N(C(=O)c1ccccc1)c1cncc(/C=C/C(=O)OC)c1` (stereo not shown) [NSSK00116], for which, under setting [2], the 50% effective concentration (EC50) is 8600 nM.
For `[2H]C(c1ccc(-c2ccc3c(cnn3C)c2)cc1F)N(C(=O)c1ccccc1)c1cccc(/C=C/C(=O)OC)c1` (stereo not shown) [NSSK00093], the EC50 by setting is: under setting [1], 459 nM; under setting [2], 511 nM.
For the molecule `COC(=O)/C=C/c1cccc(N(Cc2ccc(-c3ccc4c(cnn4C)c3)cc2)C(=O)C2CCN(C)CC2)c1` [NSSK00035], the concentration for a half-maximal effect (EC50) is 3300 nM under setting [1] and 4490 nM under setting [2].
In the case of `[2H]C(c1ccc(-c2ccc(N(C)C)cc2)cc1Cl)N(C(=O)C1CCCCC1)c1cncc(/C=C/C(=O)OC)c1` (stereo not shown) [NSSK00032], the EC50 is, setting by setting: under setting [1], 2600 nM; under setting [2], 2900 nM.
With `[2H]C(c1ccc(-c2ccc3c(cnn3C)c2)cc1Cl)N(C(=O)c1ccccc1)c1cc(F)cc(/C=C/C(=O)OC)c1` (stereo not shown) [NSSK00041], the EC50 by setting is: under setting [1], 1100 nM; under setting [2], 1200 nM.
For `COC(=O)/C=C/c1cccc(N(Cc2cccc3cc4cnn(C)c4c(F)c23)C(=O)C2CCCCC2)c1` [NSSK00006] the same measures were 273 nM and 243 nM.
As for `[2H]C(c1ccc(-c2ccc(N(C)C)cc2)cc1)N(C(=O)C1CCCCC1)c1cc(F)cc(/C=C/C(=O)OC)c1` (stereo not shown) [NSSK00025], the half-maximal effective concentration (EC50) is, setting by setting: under setting [1], 150 nM; under setting [2], 168 nM.
For the molecule `[2H]C(c1ccc(-c2ccc(N(C)C)cc2)cc1Cl)N(C(=O)C1CCCCC1)c1cccc(/C=C/C(=O)OC)c1` (stereo not shown) [NSSK00031], the half-maximal effective concentration (EC50) worked out at 366 nM under setting [1] and 249 nM under setting [2].
Turning to `[2H]C(c1ccc(-c2ccc3c(cnn3C)c2)cc1F)N(C(=O)[C@@H]1C[C@@H]2CC[C@H]1C2)c1cccc(/C=C/C(=O)OC)c1` (stereo partly shown) [NSSK00070], the EC50 by setting is: under setting [1], 1700 nM; under setting [2], 1700 nM.
As for `COC(=O)/C=C/c1cccc(N(Cc2ccc(-c3ccc4c(cnn4C)c3)cc2Cl)C(=O)C2CCN(C)CC2)c1` [NSSK00075], the EC50 under setting [1] came to 155000 nM and the EC50 under setting [2] worked out at 653000 nM.
As to `COC(=O)/C=C/c1cncc(N(Cc2ccc(-c3ccc4c(cnn4C)c3)cc2F)C(=O)c2ccccc2)c1` [NSSK00061], the EC50 was 9600 nM under setting [1] and 10200 nM under setting [2].
For `[2H]C(c1ccc(-c2ccc3c(cnn3C)c2)cc1)N(C(=O)c1ccccc1)c1cc(F)cc(/C=C/C(=O)OC)c1` (stereo not shown) [NSSK00051], the concentration for a half-maximal effect (EC50) turned out to be 1100 nM under setting [1] and 5000 nM under setting [2].
On to `[2H]C(c1ccc(-c2ccc3c(cnn3C)c2)cc1Cl)N(C(=O)C1CCCCC1)c1cc(F)cc(/C=C/C(=O)OC)c1` (stereo not shown) [NSSK00016], for which the EC50 runs as follows: under setting [1], 285 nM; under setting [2], 377 nM.
Consider `COC(=O)/C=C/c1cccc(N(Cc2cccc3cc4cnn(C)c4c(F)c23)C(=O)C2CCN(C)CC2)c1` [NSSK00036], for which the EC50 under setting [1] worked out at 18600 nM and the EC50 under setting [2] came to 4900 nM.
Turning to `COC(=O)/C=C/c1cccc(N(Cc2ccc(-c3ccc(N(C)C)cc3)cc2)C(=O)c2ccccc2)c1` [NSSK00053], the half-maximal effective concentration (EC50) by setting is: under setting [1], 529 nM; under setting [2], 539 nM.
Take `[2H]C(c1ccc(-c2ccc(N(C)C)cc2)cc1F)N(C(=O)[C@@H]1C[C@@H]2CC[C@H]1C2)c1cc(F)cc(/C=C/C(=O)OC)c1` (stereo partly drawn) [NSSK00110, methyl (E)-3-(3-((1S,2R,4R)—N-((4′-(dimethylamino)-3-fluoro-[1,1′-biphenyl]-4-yl)methyl-d)bicyclo[2.2.1]heptane-2-carboxamido)-5-fluorophenyl)acrylate]: the concentration giving a half-maximal response (EC50) reads like this: under setting [1], 60.1 nM; under setting [3], 46 nM; under setting [2], 174 nM.
On to `COC(=O)/C=C/c1cncc(N(Cc2cccc3cc4cnn(C)c4c(F)c23)C(=O)C2CCCCC2)c1` [NSSK00008], for which the concentration giving a half-maximal response (EC50) stood at 2000 nM under setting [1] and 1400 nM under setting [2].
For the molecule `[2H]C(c1ccc(-c2ccc3c(cnn3C)c2)cc1Cl)N(C(=O)[C@@H]1C[C@@H]2CC[C@H]1C2)c1cc(F)cc(/C=C/C(=O)OC)c1` (stereo partly shown) [NSSK00094], the EC50 turned out to be 786 nM under setting [1] and 865 nM under setting [2].
In the case of `COC(=O)/C=C/c1cc(F)cc(N(Cc2cccc3cc4cnn(C)c4c(F)c23)C(=O)C2C[C@H]3CC[C@@H]2C3)c1` (stereo partly shown) [NSSK00020], the EC50 under setting [1] was determined as 743 nM and the EC50 under setting [2] is 464 nM.
With `COC(=O)/C=C/c1cc(F)cc(N(Cc2ccc(-c3ccc4c(cnn4C)c3)cc2F)C(=O)c2ccccc2)c1` [NSSK00099], the EC50 was found to be 2100 nM under setting [1] and 2100 nM under setting [2].
As to `[2H]C(c1ccc(-c2ccc3c(cnn3C)c2)cc1)N(C(=O)[C@@H]1C[C@@H]2CC[C@H]1C2)c1cc(F)cc(/C=C/C(=O)OC)c1` (stereo partly shown) [NSSK00113], the half-maximal effective concentration (EC50) under setting [1] came out at 652 nM and the 50% effective concentration (EC50) under setting [2] came to 2700 nM.
`COC(=O)/C=C/c1cccc(N(Cc2cccc3ccc(N(C)C)cc23)C(=O)C2CCCCC2)c1` [NSSK00001]: the half-maximal effective concentration (EC50) turned out to be 68.6 nM under setting [1] and 55.8 nM under setting [2].

In general, EC50 refers to the midpoint of the concentration-response curve.

Values taken from patent US20190084939A1, “ANALOGS OF FEXARAMINE AND METHODS OF MAKING AND USING” (Salk Institute for Biological Studies, priority 2014, published 2019).
